The text below walks through data of patent US10556943B2, “HLA-DR binding peptides and their uses” (priority 2007, dated 2020).

Where two headings read alike, the source gives them in different places.

The target in one test is T1, purified HLA DRB1*0401 (Homo sapiens, UniProt P01903+P01911, A100K/A169T/F76Y/I96L/K127E/L162R/M171V/N62H/P40V/Q125Y/R42H/S133A/S149N/S66Y/V115G/V209L/W38E).
T1 construct: MHC molecules utilized were purified from EBV transformed homozygous cell lines or single MHC allele transfected 721.221, C1R, or fibroblast lines; made in house; host or cells: EBV transformed homozygous cell lines or single MHC allele transfected 721.221, C1R, or fibroblast lines
The test is described as follows: HLA-DR radioligand binding inhibition assay, DRB1*0401. As to the method: (§1) Fifteen distinct HLA-DR molecules were used in quantitative assays to measure the binding of peptides to solubilized HLA-DR molecules. […] Briefly, columns of inactivated Sepharose CL4B and Protein A Sepharose were used as pre-columns. HLA-DR molecules were captured by passage of lysates over LB3.1 monoclonal antibody (anti-HLA-DRA) columns. Antibody columns were washed with 10 mM Tris-HCL, pH8.0 with 1% (v/v) NP-40, followed by PBS containing 0.4% (w/v) n-octylglucoside. […] The pH was reduced to 8.0 and the eluates were concentrated by centrifugation in Centriprep 30 concentrators at 2000 rpm (Amicon, Beverly, Mass.).
(§2) Briefly, 1-10 nM of radiolabeled peptide was co-incubated for 2 days at either room temperature or 37° C. with 1 μM to 1 nM purified HLA-DR molecules in the presence of a cocktail of protease inhibitors. Assays were performed at various pH conditions, ranging from pH 4 to pH 7. […] After incubation, the percentage of HLA-DR-bound radioactivity is determined by capturing HLA-DR/peptide complexes on Optiplates (Packard Instruments, Meriden, Conn.) coated with the LB3.1 antibody and determining bound counts per minute using the TopCount microscintillation counter (Packard Instruments). […] Competitor peptides are tested in 2-4 complete, independent experiments, at concentrations ranging from 30 μg/mL to 300 pg/mL.

The next test concerns the target T2, purified HLA DRB1*0404 (Homo sapiens, UniProt P01903+P01911, A100R/A169T/F76Y/I96L/K127E/L162R/M171V/N62H/P40V/Q125Y/R42H/S133A/S149N/S66Y/V209L/W38E).
T2 construct: MHC molecules utilized were purified from EBV transformed homozygous cell lines or single MHC allele transfected 721.221, C1R, or fibroblast lines; made in house; host or cells: EBV transformed homozygous cell lines or single MHC allele transfected 721.221, C1R, or fibroblast lines
As to the kind of experiment: HLA-DR radioligand binding inhibition assay, DRB1*0404. As to the method: as §1, §2

The target of the next test is T3, purified HLA DRB1*0101 (Homo sapiens, UniProt P01903+P01911, A100R/D57E/F55L/F60I/F76Y/I96L/L162R/M171V/P40L/Q125E/R42F/V115G/Y59C).
T3 construct: MHC molecules utilized were purified from EBV transformed homozygous cell lines or single MHC allele transfected 721.221, C1R, or fibroblast lines; made in house; host or cells: EBV transformed homozygous cell lines or single MHC allele transfected 721.221, C1R, or fibroblast lines
The test is described as follows: HLA-DR radioligand binding inhibition assay, DRB1*0101. The following applies: read-out: IC50 to purified HLA DRB1*0101. As to the method: Fifteen distinct HLA-DR molecules were used in quantitative assays to measure the binding of peptides to solubilized HLA-DR molecules. […] Briefly, columns of inactivated Sepharose CL4B and Protein A Sepharose were used as pre-columns. HLA-DR molecules were captured by passage of lysates over LB3.1 monoclonal antibody (anti-HLA-DRA) columns. Antibody columns were washed with 10 mM Tris-HCL, pH8.0 with 1% (v/v) NP-40, followed by PBS containing 0.4% (w/v) n-octylglucoside.
Briefly, 1-10 nM of radiolabeled peptide was co-incubated for 2 days at either room temperature or 37° C. with 1 μM to 1 nM purified HLA-DR molecules in the presence of a cocktail of protease inhibitors. Assays were performed at various pH conditions, ranging from pH 4 to pH 7. […] After incubation, the percentage of HLA-DR-bound radioactivity is determined by capturing HLA-DR/peptide complexes on Optiplates (Packard Instruments, Meriden, Conn.) coated with the LB3.1 antibody and determining bound counts per minute using the TopCount microscintillation counter (Packard Instruments).

For the next test, the target named is T4, purified HLA DRB4*0101 (Homo sapiens, UniProt P01903+P13762, G164S).
T4 construct: MHC molecules utilized were purified from EBV transformed homozygous cell lines or single MHC allele transfected 721.221, C1R, or fibroblast lines; made in house; host or cells: EBV transformed homozygous cell lines or single MHC allele transfected 721.221, C1R, or fibroblast lines
The test is described as follows: HLA-DR radioligand binding inhibition assay, DRB4*0101. As to the method:
as §1, §2

In another test the target is T5, purified HLA DRB5*0101 (Homo sapiens, UniProt P01903+Q30154).
T5 construct: MHC molecules utilized were purified from EBV transformed homozygous cell lines or single MHC allele transfected 721.221, C1R, or fibroblast lines; made in house; host or cells: EBV transformed homozygous cell lines or single MHC allele transfected 721.221, C1R, or fibroblast lines
As to the kind of experiment: HLA-DR radioligand binding inhibition assay, DRB5*0101. As to the method:
as §1, §2

For the next test, the target named is T6, purified HLA DRB1*1101 (Homo sapiens, UniProt P01903+P01911, A100R/A169T/A87E/I96F/K41T/L162R/M171V/P40S/Q125H/Q178H/Q39Y/Q99D/R42S/S66Y/T262R/V115G/W38E).
T6 construct: MHC molecules utilized were purified from EBV transformed homozygous cell lines or single MHC allele transfected 721.221, C1R, or fibroblast lines; made in house; host or cells: EBV transformed homozygous cell lines or single MHC allele transfected 721.221, C1R, or fibroblast lines
The test is described as follows: HLA-DR radioligand binding inhibition assay, DRB1*1101. As to the method:
as §1, §2

T6 sequence (P01903 26-254, other chains not shown): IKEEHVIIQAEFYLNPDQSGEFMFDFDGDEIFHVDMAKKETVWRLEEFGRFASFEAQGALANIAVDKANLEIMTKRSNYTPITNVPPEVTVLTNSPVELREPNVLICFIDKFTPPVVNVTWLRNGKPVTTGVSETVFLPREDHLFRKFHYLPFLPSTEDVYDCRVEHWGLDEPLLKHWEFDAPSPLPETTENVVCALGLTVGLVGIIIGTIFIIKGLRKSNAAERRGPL

Turning to `CC(C)C[C@H](NC(=O)[C@@H](NC(=O)[C@H](CS)NC(=O)[C@H](CO)NC(=O)CNC(=O)[C@@H](NC(=O)[C@H](CC(=O)O)NC(=O)[C@@H](NC(=O)[C@@H](N)CO)[C@@H](C)O)C(C)C)[C@@H](C)O)C(=O)N[C@H](C(=O)N[C@@H](CS)C(=O)N1CCC[C@H]1C(=O)N[C@@H](CC(C)C)C(=O)N[C@@H](Cc1c[nH]cn1)C(=O)N[C@@H](CC(N)=O)C(=O)O)C(C)C` [Peptide 9019.0043], at purified HLA DRB1*0401 (read-out: IC50 to purified HLA DRB1*0401, purified HLA DRB1*0401), the IC50 is more than 20 µM.

On to `CC[C@H](C)[C@H](N)C(=O)N[C@@H](CS)C(=O)N[C@H](C(=O)N[C@H](C(=O)N[C@@H](CC(=O)O)C(=O)N[C@H](C(=O)N[C@@H](Cc1ccc(O)cc1)C(=O)N[C@@H](CCSC)C(=O)N[C@H](C(=O)N[C@@H](CCSC)C(=O)N[C@H](C(=O)N[C@@H](CCCCN)C(=O)N[C@@H](CS)C(=O)N[C@@H](Cc1c[nH]c2ccccc12)C(=O)N[C@@H](CCSC)C(=O)O)C(C)C)[C@@H](C)CC)C(C)C)[C@@H](C)CC)[C@@H](C)O` [Peptide 1622.04], for which the concentration for half-maximal inhibition (IC50) at purified HLA DRB1*0404 (read-out: IC50 to purified HLA DRB1*0404, purified HLA DRB1*0404) is more than 20 µM; at purified HLA DRB1*0101 it was more than 20 µM.

With `CSCC[C@H](NC(=O)[C@H](CC(C)C)NC(=O)[C@H](CCC(=O)O)NC(=O)[C@H](Cc1c[nH]c2ccccc12)NC(=O)[C@@H](NC(=O)[C@@H](NC(=O)[C@@H](NC(=O)CNC(=O)[C@H](Cc1ccc(O)cc1)NC(=O)[C@H](CO)NC(=O)[C@H](Cc1c[nH]c2ccccc12)NC(=O)[C@@H](NC(=O)[C@H](CC(=O)O)NC(=O)[C@@H](N)CO)C(C)C)C(C)C)[C@@H](C)O)C(C)C)C(=O)N[C@H](C(=O)O)[C@@H](C)O` [Peptide 9019.0089], on purified HLA DRB4*0101, the IC50 was more than 20 µM.

For `CC(C)C[C@H](NC(=O)[C@@H]1CCCN1C(=O)[C@H](CO)NC(=O)[C@@H]1CCCN1C(=O)[C@H](CC(=O)O)NC(=O)[C@H](Cc1c[nH]cn1)NC(=O)[C@@H](NC(=O)[C@@H]1CCCN1C(=O)[C@H](CC(C)C)NC(=O)[C@H](CO)NC(=O)[C@H](CCC(N)=O)NC(=O)[C@H](CC(C)C)NC(=O)CNC(=O)[C@H](CCCCN)NC(=O)[C@H](C)N)[C@@H](C)O)C(=O)O` [Peptide 9019.0098], the 50% inhibitory concentration (IC50) on purified HLA DRB5*0101 was more than 20 µM.

Take `CC[C@H](C)[C@H](NC(=O)CNC(=O)[C@H](CC(=O)O)NC(=O)[C@H](Cc1ccc(O)cc1)NC(=O)[C@@H]1CCCN1C(=O)[C@H](CCCCN)NC(=O)[C@H](C)N)C(=O)N1CCC[C@H]1C(=O)N[C@@H](C)C(=O)N[C@@H](CCCNC(=N)N)C(=O)N[C@@H](CCC(=O)O)C(=O)N[C@H](C(=O)N1CCC[C@H]1C(=O)N[C@@H](CC(=O)O)C(=O)N[C@@H](CC(C)C)C(=O)O)[C@@H](C)CC` [Peptide 9019.0092]: the IC50 on purified HLA DRB1*0404, on purified HLA DRB1*1101, at purified HLA DRB1*0401 and on purified HLA DRB4*0101 was more than 20 µM in each case.

Take `CC[C@H](C)[C@H](NC(=O)[C@@H](NC(=O)[C@H](Cc1ccc(O)cc1)NC(=O)CN)C(C)C)C(=O)NCC(=O)N[C@H](C(=O)N[C@@H](CCC(N)=O)C(=O)N[C@@H](CCC(N)=O)C(=O)N[C@@H](C)C(=O)N[C@H](C(=O)N1CCC[C@H]1C(=O)NCC(=O)N1CCC[C@H]1C(=O)N[C@@H](C)C(=O)N[C@@H](Cc1ccc(O)cc1)C(=O)O)[C@@H](C)O)[C@@H](C)O` [Peptide 9019.0110]: the IC50 at purified HLA DRB5*0101 came out at 10.2 µM.

For orientation: IC50 means the midpoint of a concentration-inhibition curve.
